Source: patent US8013156B2 (Exelixis, Inc., priority 2003, dated 2011)

Target: Tie-2 (Homo sapiens, UniProt Q02763)
Experiment: Tie-2 tyrosine kinase activity assay (luciferase/luciferin ATP consumption with pEY substrate, or 33P-ATP incorporation)
Format: biochemical
Settings: human enzyme Tie-2
Experimental: One measure of inhibition is Ki. […] The Ki for a compound is determined from the IC50 based on three assumptions. First, only one compound molecule binds to the enzyme and there is no cooperativity. […] Third, the enzymatic rate of the enzyme-inhibitor complex is zero. The rate data (i.e. compound concentration) are fitted to the equation:
[formula] where V is the observed rate, Vmax, is the rate of the free enzyme, I0 is the inhibitor concentration, E0 is the enzyme concentration, and Kd is the dissociation constant of the enzyme-inhibitor complex.
Tyrosine kinase activity is determined by 1) measurement of kinase-dependent ATP consumption by in the presence of a generic substrate such as […], tyrosine (pEY), by luciferase/luciferin-mediated chemiluminescence or; 2) incorporation of radioactive phosphate derived from ^33P-ATP into a generic substrate which has been adsorbed onto the well surface of polystyrene microtiter plates. Phosphorylated substrate products are quantified by scintillation spectrometry.
Inhibition is indicated as IC50 with following key: A=IC50 less than 50 nM, B=IC50 greater than 50 nM, but less than or equal to 1000 nM, C=IC50 greater than 1000 nM, but less than 10,000 nM, D=IC50 10,000 nM or greater, and “-”=no data available. The abbreviation for human enzyme, Tie-2, is defined as tyrosine kinase with immunoglobulin and EGF repeats.

Sequence of Tie-2 (Q02763 23-1124): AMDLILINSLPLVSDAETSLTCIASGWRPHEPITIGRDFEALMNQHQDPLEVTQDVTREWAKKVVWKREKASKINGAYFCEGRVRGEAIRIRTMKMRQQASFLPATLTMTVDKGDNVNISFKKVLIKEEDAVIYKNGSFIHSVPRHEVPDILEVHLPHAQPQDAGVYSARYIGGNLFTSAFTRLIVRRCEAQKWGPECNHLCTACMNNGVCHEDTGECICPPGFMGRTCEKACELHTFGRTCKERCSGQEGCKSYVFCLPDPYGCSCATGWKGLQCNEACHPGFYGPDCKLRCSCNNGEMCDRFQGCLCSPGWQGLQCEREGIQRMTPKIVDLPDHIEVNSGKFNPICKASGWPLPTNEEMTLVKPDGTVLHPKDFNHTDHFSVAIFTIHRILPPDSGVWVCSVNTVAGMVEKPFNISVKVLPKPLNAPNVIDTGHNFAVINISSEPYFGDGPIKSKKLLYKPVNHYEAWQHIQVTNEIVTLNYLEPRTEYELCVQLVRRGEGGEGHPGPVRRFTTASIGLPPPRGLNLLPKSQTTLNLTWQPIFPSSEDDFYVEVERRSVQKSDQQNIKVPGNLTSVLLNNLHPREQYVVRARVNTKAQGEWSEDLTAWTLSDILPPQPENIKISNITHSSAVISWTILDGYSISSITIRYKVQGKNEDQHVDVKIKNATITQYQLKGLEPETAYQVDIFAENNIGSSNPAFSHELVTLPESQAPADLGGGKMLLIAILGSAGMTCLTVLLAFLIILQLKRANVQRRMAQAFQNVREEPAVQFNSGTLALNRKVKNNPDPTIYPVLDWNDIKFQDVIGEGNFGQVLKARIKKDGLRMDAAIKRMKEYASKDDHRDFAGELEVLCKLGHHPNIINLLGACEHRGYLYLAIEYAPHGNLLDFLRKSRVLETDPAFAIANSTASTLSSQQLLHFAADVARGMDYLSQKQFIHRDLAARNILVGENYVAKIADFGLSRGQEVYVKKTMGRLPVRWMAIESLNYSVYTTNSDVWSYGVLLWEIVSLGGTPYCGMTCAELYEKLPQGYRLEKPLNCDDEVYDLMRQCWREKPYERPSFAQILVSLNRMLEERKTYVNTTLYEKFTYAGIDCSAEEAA

| SMILES | IC50 [µM] |
| --- | --- |
| COc1ccc(COc2nsnc2N2CCN(C(=O)Nc3cc(C(F)(F)F)cc(C(F)(F)F)c3)CC2)cc1 [Example 17] | ≥ 10 |
| N#Cc1nccc(COc2nsnc2N2CCN(C(=O)Nc3cc(C(F)(F)F)cc(C(F)(F)F)c3)CC2)n1 [Example 134, N-[3,5-bis(trifluoromethyl)phenyl]-4-(4-{[(2-cyanopyrimidin-4-yl)methyl]oxy}-1,2,5-thiadiazol-3-yl)piperazine-1-carboxamide] | ≥ 10 |
| O=C(Nc1cc(C(F)(F)F)cc(C(F)(F)F)c1)Nc1cc(COc2nsnc2N2CCN(C(=O)Nc3cc(C(F)(F)F)cc(C(F)(F)F)c3)CC2)ccn1 [Example 130, N-[3,5-bis(trifluoromethyl)phenyl]-4-{4-[({2-[({[3,5-bis(trifluoromethyl)phenyl]amino}carbonyl)amino]pyridin-4-yl}methyl)oxy]-1,2,5-thiadiazol-3-yl}piperazine-1-carboxamide] | 1 to 10 |
| Nc1cc(COc2nsnc2N2CCNCC2)ccn1 [Example 102, 4-{[(4-piperazin-1-yl-1,2,5-thiadiazol-3-yl)oxy]methyl}pyridin-2-amine] | ≥ 10 |
| Nc1nccc(COc2nsnc2N2CCN(C(=O)Nc3cc(C(F)(F)F)cc(C(F)(F)F)c3)CC2)n1 [Example 104, 4-(4-{[(2-aminopyrimidin-4-yl)methyl]oxy}-1,2,5-thiadiazol-3-yl)-N-[3,5-bis(trifluoromethyl)phenyl]piperazine-1-carboxamide] | < 0.05 |
| Nc1nccc(COc2cccnc2N2CCN(C(=O)Nc3cc(Cl)ccc3F)CC2)n1 [Example 193, 4-(3-{[(2-aminopyrimidin-4-yl)methyl]oxy}pyridin-2-yl)-N-(5-chloro-2-fluorophenyl)piperazine-1-carboxamide] | 0.05 to 1 |
| O=C(Nc1cc(C(F)(F)F)cc(C(F)(F)F)c1)N1CCN(c2nsnc2OCc2ccnc(NC3CCCC3)n2)CC1 [Example 128, N-[3,5-bis(trifluoromethyl)phenyl]-4-[4-({[2-(cyclopentylamino)pyrimidin-4-yl]methyl}oxy)-1,2,5-thiadiazol-3-yl]piperazine-1-carboxamide] | 0.05 to 1 |
| CNc1nccc(COc2nsnc2N2CCN(C(=O)Nc3cc(C(F)(F)F)cc(C(F)(F)F)c3)CC2)n1 [Example 108, N-[3,5-bis(trifluoromethyl)phenyl]-4-[4-({[2-(methylamino)pyrimidin-4-yl]methyl}oxy)-1,2,5-thiadiazol-3-yl]piperazine-1-carboxamide] | < 0.05 |
| CN(C)c1cccc(COc2nsnc2N2CCN(C(=O)Nc3cc(C(F)(F)F)cc(C(F)(F)F)c3)CC2)c1 [Example 11, N-[3,5-bis(trifluoromethyl)phenyl]-4-[4-({[3-(dimethylamino)phenyl]methyl}oxy)-1,2,5-thiadiazol-3-yl]piperazine-1-carboxamide] | ≥ 10 |
| CCc1cccc(NC(=O)N2CCN(c3nccnc3OCc3ccnc(N)n3)CC2)c1 [Example 201, 4-(3-{[(2-aminopyrimidin-4-yl)methyl]oxy}pyrazin-2-yl)-N-(3-ethylphenyl)piperazine-1-carboxamide] | < 0.05 |
| O=C(Nc1cc(C(F)(F)F)cc(C(F)(F)F)c1)N1CCN(c2ncccc2OCc2ccncc2)CC1 [Example 97, N-[3,5-bis(trifluoromethyl)phenyl]-4-{3-[(pyridin-4-ylmethyl)oxy]pyridin-2-yl}piperazine-1-carboxamide] | < 0.05 |
| O=C(Nc1cc(C(F)(F)F)cc(C(F)(F)F)c1)N1CCN(c2nsnc2OCc2ccnc(F)c2)CC1 [Example 82, N-[3,5-bis(trifluoromethyl)phenyl]-4-(4-{[(2-fluoropyridin-4-yl)methyl]oxy}-1,2,5-thiadiazol-3-yl)piperazine-1-carboxamide] | 1 to 10 |
| CCc1cc(Cl)cc(NC(=O)N2CCN(c3ncccc3OCc3ccnc(NC(=O)CN4CCN(C)CC4)c3)CC2)c1 [Example 198, N-(3-chloro-5-ethylphenyl)-4-(3-{[(2-{[(4-methylpiperazin-1-yl)acetyl]amino}pyridin-4-yl)methyl]oxy}pyridin-2-yl)piperazine-1-carboxamide] | < 0.05 |
| CC1CN(c2nsnc2OCc2ccncc2)CCN1C(=O)Cc1cc(C(F)(F)F)ccc1C(F)(F)F (stereo not drawn) [Example 61, 1-{[2,5-bis(trifluoromethyl)phenyl]acetyl}-2-methyl-4-{4-[(pyridin-4-ylmethyl)oxy]-1,2,5-thiadiazol-3-yl}piperazine] | 0.05 to 1 |
| CC1CN(c2nsnc2OCc2ccncc2)CC(C)N1C(=O)Nc1cc(C(F)(F)F)cc(C(F)(F)F)c1 (stereo not drawn) [Example 68, N-[3,5-bis(trifluoromethyl)phenyl]-2,6-dimethyl-4-{4-[(pyridin-4-ylmethyl)oxy]-1,2,5-thiadiazol-3-yl}piperazine-1-carboxamide] | 0.05 to 1 |
| Nc1nccc(COc2cccnc2N2CCN(CC(=O)Nc3cc(C(F)(F)F)cc(C(F)(F)F)c3)CC2)n1 [Example 177, 2-[4-(3-{[(2-aminopyrimidin-4-yl)methyl]oxy}pyridin-2-yl)piperazin-1-yl]-N-[3,5-bis(trifluoromethyl)phenyl]acetamide] | 1 to 10 |
| O=C(Nc1cc(C(F)(F)F)cc(C(F)(F)F)c1)N1CCN(c2nsnc2OCc2ccnc(NCc3ccccc3)c2)CC1 [Example 115, N-[3,5-bis(trifluoromethyl)phenyl]-4-{4-[({2-[(phenylmethyl)amino]pyridin-4-yl}methyl)oxy]-1,2,5-thiadiazol-3-yl}piperazine-1-carboxamide] | 0.05 to 1 |
| CCCCOc1nccc(COc2nsnc2N2CCN(C(=O)Nc3cc(C(F)(F)F)cc(C(F)(F)F)c3)CC2)n1 [Example 137, N-[3,5-bis(trifluoromethyl)phenyl]-4-[4-({[2-(butyloxy)pyrimidin-4-yl]methyl}oxy)-1,2,5-thiadiazol-3-yl]piperazine-1-carboxamide] | ≥ 10 |
| CC1CN(c2nccnc2OCc2ccncc2)C(C)CN1C(=O)Nc1cc(C(F)(F)F)cc(C(F)(F)F)c1 (stereo not drawn) [Example 78, N-[3,5-bis(trifluoromethyl)phenyl]-2,5-dimethyl-4-{3-[(pyridin-4-ylmethyl)oxy]pyrazin-2-yl}piperazine-1-carboxamide] | < 0.05 |
| O=C(Nc1cc(C(F)(F)F)cc(C(F)(F)F)c1)N1CCN(c2nsnc2OCc2ccsc2)CC1 [Example 13] | ≥ 10 |
| C[C@H]1CN(c2nccnc2OCc2ccncc2)CCN1C(=O)Nc1cc(C(F)(F)F)cc(C(F)(F)F)c1 [Example 80, (2S)-N-[3,5-bis(trifluoromethyl)phenyl]-2-methyl-4-{3-[(pyridin-4-ylmethyl)oxy]pyrazin-2-yl}piperazine-1-carboxamide] | < 0.05 |

The remaining lines, values ahead:

| IC50 [µM] | SMILES |
| --- | --- |
| < 0.05 | CCc1cccc(NC(=O)N2CCN(c3ncccc3OC(C)c3ccnc(N)n3)CC2)c1 (stereo not drawn) [Example 245, 4-(3-{[1-(2-aminopyrimidin-4-yl)ethyl]oxy}pyridin-2-yl)-N-(3-ethylphenyl)piperazine-1-carboxamide] |
| < 0.05 | CCc1cc(CC)cc(NC(=O)N2CCN(c3ccccc3OCc3ccnc(N)n3)CC2)c1 [Example 279, 4-(2-{[(2-aminopyrimidin-4-yl)methyl]oxy}phenyl)-N-(3,5-diethylphenyl)piperazine-1-carboxamide] |
| < 0.05 | Nc1nccc(COc2nccnc2N2CCN(C(=O)Nc3cc(C(F)(F)F)ccc3F)CC2)n1 [Example 225, 4-(3-{[(2-aminopyrimidin-4-yl)methyl]oxy}pyrazin-2-yl)-N-[2-fluoro-5-(trifluoromethyl)phenyl]piperazine-1-carboxamide] |
| 0.05 to 1 | Nc1nccc(COc2nccnc2N2CCN(C(=O)Nc3ccccc3)CC2)n1 [Example 224, 4-(3-{[(2-aminopyrimidin-4-yl)methyl]oxy}pyrazin-2-yl)-N-phenylpiperazine-1-carboxamide] |
| 1 to 10 | Nc1nccc(COc2nsnc2N2CCN(C(=O)Nc3cccc(F)c3)CC2)n1 [Example 263, 4-(4-{[(2-aminopyrimidin-4-yl)methyl]oxy}-1,2,5-thiadiazol-3-yl)-N-(3-fluorophenyl)piperazine-1-carboxamide] |
| < 0.05 | Nc1nccc(COc2nsnc2N2CCN(C(=O)Nc3cccc(OC(F)(F)F)c3)CC2)n1 [Example 258, 4-(4-{[(2-aminopyrimidin-4-yl)methyl]oxy}-1,2,5-thiadiazol-3-yl)-N-{3-[(trifluoromethyl)oxy]phenyl}piperazine-1-carboxamide] |
| < 0.05 | CCc1cc(NC(=O)N2CCN(c3nsnc3OCc3ccnc(N)n3)CC2)cc(C(F)(F)F)c1 [Example 260, 4-(4-{[(2-aminopyrimidin-4-yl)methyl]oxy}-1,2,5-thiadiazol-3-yl)-N-[3-ethyl-5-(trifluoromethyl)phenyl]piperazine-1-carboxamide] |
| < 0.05 | Nc1nccc(COc2nsnc2N2CCN(C(=O)Nc3cc(C(F)(F)F)cc(Cl)c3F)CC2)n1 [Example 248, 4-(4-{[(2-aminopyrimidin-4-yl)methyl]oxy}-1,2,5-thiadiazol-3-yl)-N-[3-chloro-2-fluoro-5-(trifluoromethyl)phenyl]piperazine-1-carboxamide] |
| < 0.05 | CCc1cc(CC)cc(NC(=O)N2CCN(c3nsnc3OCc3ccnc(N)n3)CC2)c1 [Example 242, 4-(4-{[(2-aminopyrimidin-4-yl)methyl]oxy}-1,2,5-thiadiazol-3-yl)-N-(3,5-diethylphenyl)piperazine-1-carboxamide] |
